Reference: PubChem BioAssay (NCI)
Values joined by “and” are separate entries in the source; they are usually repeats but may differ in a detail not shown here. Equal entries are not always repeated.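 1) Cells in 96-well plates. 2) Compound, 48 h, 5 concentrations. 3) Linear interpolation between surrounding doses. 4) Unreached endpoint = highest concentration. GI50 is the concentration that inhibits growth by half. TGI: total growth inhibition.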 *1 amine or outer side, *2 acyl side, *3 side chain or, on linkers, in order; H or OH if unused. Where a SMILES comes first, the peptide text is derived from it. Bridges are numbered along the chain shown (N, C = ends). Roman numbers before positions name the chains, in order. [ ]: non-standard residue; d: D form. Actinocin(9to1) = Cc1c2oc3c(C)ccc(C(=O)[*:1])c3nc-2c(C(=O)[*:2])c(N)c1=O; NMeF = CN[CH](Cc1ccccc1)C(=O)O; Sar = CNCC(=O)O

Assays:
Experiment in all cases: growth of human tumour cells (NCI), 48 h
786-0 renal = test system: 786-0 renal
A549 NSCLC = test system: A549 NSCLC
BT-549 breast = test system: BT-549 breast
COLO 205 colon = test system: COLO 205 colon
HCC-2998 colon = test system: HCC-2998 colon
IGROV1 ovarian = test system: IGROV1 ovarian
K-562 leukemia = test system: K-562 leukemia
NCI-H522 lung = test system: NCI-H522 lung
OVCAR-4 ovarian = test system: OVCAR-4 ovarian
SF-295 CNS = test system: SF-295 CNS

SMILES | GI50 (786-0 renal) | GI50 (A549 NSCLC) | TGI (A549 NSCLC) | GI50 (BT-549 breast) [µM] | TGI (BT-549 breast) [µM] | GI50 (COLO 205 colon) | TGI (COLO 205 colon) | GI50 (HCC-2998 colon) [µM] | TGI (HCC-2998 colon) | GI50 (IGROV1 ovarian) | TGI (IGROV1 ovarian) | GI50 (K-562 leukemia) | TGI (K-562 leukemia) | GI50 (NCI-H522 lung) | TGI (NCI-H522 lung) [µM] | GI50 (OVCAR-4 ovarian) | TGI (OVCAR-4 ovarian) | GI50 (SF-295 CNS) [µM] | TGI (SF-295 CNS) | TGI (786-0 renal)
O=c1oc2c(C(F)(F)F)cccc2cc1-c1csc(Nc2ccc(OCCF)cc2)n1 | 0.0611 µM | 0.0391 µM | 18.8 µM | 0.0387 | 6.34 | 0.0268 µM | 0.0729 µM | 0.0423 | > 100 µM | 0.0757 µM | > 37 µM | 0.0348 µM | > 100 µM | 0.0216 µM | 0.0766 | 0.077 µM | > 66.7 µM | 0.0286 | 12.7 µM | 
Cc1coc2c1C(OC(=O)C(C)C)C1(C)C(C)CCC(O)C1C2=O (stereo not given) |  |  | > 100 µM |  | > 95 |  | > 100 µM |  | > 100 µM |  | > 100 µM |  | > 100 µM |  | > 100 |  | > 100 µM |  | > 100 µM | > 100 µM
CC(O)c1cc(C(=O)N[C@@H](C)Cn2ccc(-c3ccc(C#N)c(Cl)c3)n2)n[nH]1 (stereo not given in full) | > 100 µM | 85.4 µM | > 100 µM | 19.7 | 77.7 | 54 µM | > 100 µM | > 100 | > 100 µM | 78.8 µM | > 100 µM | 0.73 µM | > 100 µM | 39.4 µM | > 100 | 16.3 µM | > 100 µM | 23.9 | > 100 µM | > 100 µM
Oc1ccc(N=Nc2ccccn2)c(O)c1 | 0.394 µM | 2.94 µM | > 100 µM | 0.628 | > 100 | 0.732 µM | > 100 µM | 0.49 | > 100 µM | 0.595 µM | > 100 µM | 0.582 µM | > 100 µM | 2.68 µM | > 100 | 0.267 µM | 6.41 µM | 0.522 | > 100 µM | > 100 µM
COC(=O)C(C)NC(=O)c1ccccc1I(OS(=O)(=O)C(F)(F)F)c1ccccc1 (stereo not given) | 25 µM | 30.6 µM | > 75.2 µM | 23 | 57.3 | 23.6 µM | 45.9 µM | 14.7 | 32.3 µM | 36.4 µM | > 100 µM | > 42.4 µM | > 63.7 µM | 23.9 µM | 64.9 | 19.1 µM | 50.9 µM | > 44.7 | > 63.6 µM | 51 µM
Cc1c([N+](=O)[O-])oc2ccc3ccccc3c12 |  |  | > 100 µM |  | > 100 |  | > 100 µM |  | > 100 µM |  | > 100 µM |  | > 100 µM |  | 41.9 |  | > 100 µM |  | > 100 µM | > 100 µM
CC(C)=CCCC(C)C1=C(O)C(=O)C(C)=CC1=O (stereo not given) |  |  | > 100 µM |  | 30.2 |  | 18.2 µM |  | 27.9 µM |  | 32.8 µM |  | 4.37 µM |  | 4.48 |  | 17.4 µM |  | > 100 µM | 26.9 µM
Cc1c(Cl)cccc1NC(=O)c1sc2nc3c(cc2c1N)CCCCC3 | 0.207 µM | 0.725 µM | > 50 µM | 0.252 | > 50 | 0.596 µM | 13.2 µM | 1.76 | > 50 µM | 0.376 µM | > 50 µM | 0.166 µM | > 50 µM | 0.187 µM | 42.3 | 5.28 µM | > 50 µM | 0.17 | 10 µM | 14 µM
Cc1c2oc3c(C)ccc(C(=O)NC4C(=O)NC(C(C)C)C(=O)N5CCCC5C(=O)N(C)CC(=O)N(C)C(Cc5ccccc5)C(=O)OC4C)c3nc-2c(C(=O)NC2C(=O)NC(C(C)C)C(=O)N3CCCC3C(=O)N(C)CC(=O)N(C)C(Cc3ccccc3)C(=O)OC2C)c(N)c1=O (stereo not given) (I: TVP[Sar][NMeF] / II: TVP[Sar][NMeF]; ester I:1-I:C, II:1-II:C; linker I:N-II:N via Actinocin(9to1); configuration not given here) | < 0.01 µM and 0.00327 µM | < 0.01 µM and 0.00145 µM | 0.295 µM and > 1 µM |  | 0.151 | 0.00372 µM | 0.0266 µM |  | < 0.01 µM and 0.0486 µM | < 0.01 µM and 0.0028 µM |  | 0.00115 µM |  | 0.00155 µM | 0.0201 |  | < 0.0109 µM and 0.033 µM |  | < 0.0141 µM and 0.108 µM | > 1 µM
C=C1C(=O)O[C@H]2[C@H]1CC/C(COC(=O)NCc1ccc(Cn3c(=O)sn(-c4ccccc4)c3=O)cc1)=C\CC[C@@]1(C)O[C@@H]21 | 1.81 µM | 6.22 µM | 20.6 µM | 2.14 | 5 | 1.77 µM | 3.44 µM | 1.99 | 3.82 µM | 2.09 µM | 4.2 µM | 1.8 µM | > 100 µM | 1.74 µM | 3.48 | 2.74 µM | 8.19 µM | 8.52 | 21.8 µM | 3.37 µM
C[C@@H]1COCCN1c1cc(C2(O)C[C@H]3CC[C@@H](C2)O3)c2cnn(-c3ccn[nH]3)c2n1 (stereo not given in full) | 0.0479 µM | 0.0651 µM | 1.13 µM | 0.049 | 0.784 | 0.253 µM | 2.52 µM | < 0.0113 | 0.229 µM | 0.0453 µM | 0.977 µM | 0.063 µM | > 100 µM | 0.141 µM | 1.01 | 0.0397 µM | 0.419 µM | 0.0329 | 0.308 µM | > 100 µM
C=CC1=C(C)C2=NC1=CC1=NC(=C(CC)/C1=C\O)C=C1N=C3C(=C1C)C(=O)[C@H](C(=O)OC)C3=C1NC(=C2)[C@@H](C)[C@@H]1CCC(=O)O |  |  | > 100 µM |  | > 100 |  | > 100 µM |  | > 100 µM |  | > 100 µM |  | > 100 µM |  | > 100 |  | > 100 µM |  | > 100 µM | > 100 µM
CNCCN=c1ccc2c3c1c(O)c1c(O)ccc(=O)c1c3[nH]n2CCNCCO | 0.05 µM | 0.027 µM | 4.65 µM and 4.57 µM |  | 2.43 | 0.398 µM and 0.56 µM | 4.41 µM and 4.59 µM |  | 1.61 µM and 8.62 µM | 1.25 µM | 11.2 µM and 12.9 µM | 0.224 µM and 0.296 µM | 3.66 µM and 10.9 µM | 0.194 µM and 0.627 µM |  | 0.861 µM and 0.923 µM | 3.26 µM and 5.54 µM | 0.0369 | 0.794 µM and 0.811 µM | 1.79 µM and 0.677 µM
CN(C)CCCn1c(-c2nonc2N)nc2cnccc21 | > 25 µM | > 25 µM | > 25 µM | > 25 | > 25 | > 25 µM | > 25 µM | > 25 | > 25 µM | > 25 µM | > 25 µM | > 25 µM | > 25 µM | > 25 µM | > 25 | > 25 µM | > 25 µM | > 25 | > 25 µM | > 25 µM
